From patent publication US20140220069A1, “ACTIVE INGREDIENT DERIVED FROM TORULASPORA DELBRUECKII AND COSMETIC USE FOR IMPROVING AND/OR REPAIRING THE BARRIER FUNCTION OF THE SKIN” (SOCIETE INDUSTRIELLE LIMOUSINE D'APPLICATION BIOLOGIQUE, priority 2011, published 2014)

Legend:
E-cadherin = test: Synthesis of E-cadherin on reconstructed epidermis (immunohistological marking, image analysis); format: cell-based, human
Procedure: (§1) The procedure used to validate the agonist and the antagonist of the nAChRs is illustrated below for the synthesis of loricrin on reconstructed epidermis. It also applies to the synthesis of E-cadherin on reconstructed epidermis. The inserts comprising the epidermis under construction are placed in a culture medium containing: • 1,000 μM of mecamylamine (reversible antagonist of the nACHRs) or • 500 μM of nicotine (reversible agonist of the nACHRs).
(§2) On D0, the human keratinocytes are cultivated in a culture medium and then inoculated on an insert.
(§3) On D13 and/or D18, the inserts are recovered, fixed, dehydrated, and incorporated into paraffin.
(§4) Next, cuts are made, and then an immunohistological marking of the loricrin or the E-cadherin is done.
(§5) The display is then produced on a microscope coupled to an image analysis system. The intensity of the fluorescence (green color) is proportional to the synthesis of loricrin or cadherin.

loricrin [1] = test: Synthesis of loricrin on reconstructed epidermis (immunohistological marking, image analysis); format: cell-based, human; conditions: for Synthesis of Loricrin: D18, untreated control 100%; for synthesis of loricrin relative to the untreated control: mecamylamine 1,000 μM, nicotine 500 μM
Procedure: as §1
On D18, the inserts are recovered, fixed, dehydrated, and incorporated into paraffin.
Cuts are made, and then an immunohistological marking of the loricrin is done.
Visualization is then done on a microscope coupled to an image analysis system. The intensity of the fluorescence (green color) is proportional to the synthesis of loricrin.
as §2, §3, §4, §5

loricrin [2] = test: Synthesis of loricrin by Western Blot on normal human keratinocytes in a single layer; format: cell-based; conditions: for effect on the synthesis of human keratinocyte loricrin in a single layer: human keratinocytes in a single layer
Procedure: The test is done on normal human keratinocytes, according to the operating procedure described in Item A.II of the part on the evaluation of the cosmetic effectiveness.
It was accomplished by Western Blot on normal human keratinocytes that are isolated from foreskins, according to the operating procedure described below.
On D0, the human keratinocytes are inoculated and then incubated at 37° C.
The cells are then incubated at 37° C.
On D7, the cellular extracts are recovered, and the Western Blot metering is carried out.

Structure (SMILES)	effect on the synthesis of E-cadherin on reconstructed epidermis (E-cadherin)	Synthesis of Loricrin (loricrin [1]; 1,000 μM)	synthesis of loricrin relative to the untreated control (loricrin [1])	Change in loricrin synthesis versus control (loricrin [2]; 350 μM, normal human keratinocytes, Western Blot on D7)	effect on the synthesis of human keratinocyte loricrin in a single layer (loricrin [2])	Synthesis of Loricrin (loricrin [1]; 500 μM)	Ratio of Loricrin/Control (%) (loricrin [2])
CNC1(C)C2CCC(C2)C1(C)C (stereo not shown) [Mecamylamine, mecamylamine]	inhibiting effect	53%	reduced	−57%	inhibiting effect	–	–
CN1CCCC1c1cccnc1 (stereo not shown) [Nicotine, nicotine]	stimulating effect	–	increased	–	stimulating effect	113%	+51%
